Assay results as given in PMC8582737 (International Journal of Molecular Sciences, 2021).
≈ marks a conversion by molar mass, not a printed value.

Tests used:
[1] = Solubility of KTZ, shake-flask method; type: physicochemical; settings: for solubility at 24 h: 25 °C; for Improvement of KTZ solubility by TTO: 5% TTO
Description: Mixtures were mechanically shaken for 24 h at 25 °C ± 0.5 °C and allowed to stand for 24 h to attain equilibrium. Then, the samples were centrifuged at 4000 rpm for 15 min, followed by filtration through a CA membrane filter (0.45 μm), diluted appropriately with methanol, and analyzed by the HPLC method at 231 nm against a standard.

[2] = cited from earlier work

In the case of `CC(=O)N1CCN(c2ccc(OCC3COC(Cn4ccnc4)(c4ccc(Cl)cc4Cl)O3)cc2)CC1` (centres unmarked) [KTZ, Ketoconazole], the solubility at 24 h ([1]; Castor oil) is reported as 93.5 ± 8.39 µg/mL (≈ 176 µM), the solubility at 24 h ([1]; Isopropyl myristate) is reported as 94 ± 3.26 µg/mL (≈ 177 µM) and the solubility at 24 h ([1]; Paraffin oil) is reported as 17 ± 2.84 µg/mL (≈ 32 µM). For the same compound, the solubility at 24 h ([1]; Water) was 9.56 ± 0.09 µg/mL (≈ 18 µM), the solubility at 24 h ([1]; castor oil with 5% TTO, oil or lipid, thermodynamic from solid, Castor oil + TTO 5%) was 155 ± 7.94 µg/mL and the “Improvement of KTZ solubility by TTO” value ([1]; castor oil) was “about 2 fold”. The solubility at 24 h ([1]; isopropyl myristate with 5% TTO, oil or lipid, thermodynamic from solid, Isopropyl myristate + TTO 5%) was 131 ± 5.13 µg/mL, the “Improvement of KTZ solubility by TTO” value ([1]; isopropyl myristate) was “about 2 fold” and the solubility at 24 h ([1]; paraffin oil with 5% TTO, Paraffin oil + TTO 5%) was 80.1 ± 6.5 µg/mL. For the same compound, the “Improvement of KTZ solubility by TTO” value ([1]; paraffin oil) was 5 fold, the solubility at 24 h ([1]; water with 5% TTO, aqueous with cosolvent or surfactant or cyclodextrin, thermodynamic from solid, Water + TTO 5%) was 35.7 ± 4.59 µg/mL and the “Improvement of KTZ solubility by TTO” value ([1]; water) was roughly 4 fold. For the same compound, the Solubility in water [2] was 0.0866 to 40.0 µg/mL and the “pH of highest stability” value [2] was 6–8.
